What was measured:
human T cells = test: One-way mixed lymphocyte reaction (MLR), human T cells, CFSE; type: cell-based; conditions: high dose (10 µM), 96 h
Procedure: (§1) Flow cytometry acquisition and compensation was performed on a LSR Fortessa (BD Biosciences, San Jose, CA, USA). Analysis of listmode data was performed using Winlist 8.0 (Verity Software House, Inc., Topsham, ME, USA). Briefly, the viable responder lymphocytes were hierarchically gated for single, low side scatter, viable cells with absent CD45 labeling. The percentage of proliferating cells was determined based on CFSE dye dilution compared to the CFSE labeling intensity from the non-proliferating MLR negative control sample. The full list of antibodies and reagents used in assays is available in Table S1.
(§2) Mixed lymphocyte reactions were performed in human (human vs. human, Figure 1E) and woodchucks (woodchuck vs. human, Figure 1F). 10 mL peripheral blood from healthy donors and 3 mL woodchuck peripheral blood isolated. Stimulator cells (human cells for both assays) were irradiated at 40 Gy in a Mark I Cesium-137 irradiator for 20 min. Following irradiation, cells were stained for CD45-APC (BD Biosciences, San Jose, CA, USA). Responder cells (non-irradiated human or woodchuck cells) were labeled with CFSE (Thermo Fisher Scientific, Eugene, OR, USA). Target and responder cells were placed in a round bottom 96 well polypropylene plate at a 2:1 ratio in the presence of 0–10 µM sorafenib and incubated at 37 °C for 96 h. […]

woodchuck T cells = test: One-way mixed lymphocyte reaction (MLR), woodchuck T cells, CFSE; type: cell-based; conditions: woodchuck vs. human MLR, 0–10 µM, dose responsive, 96 h
Procedure: as §1, §2

[1] = Treatment toxicity in WHV-infected woodchucks (general performance, CBC, biochemistry); type: in vivo, woodchuck (Marmota monax)
Procedure: General performance statuses of animals were evaluated such as moving activity, appetite, defecation, urination, and weight changes regularly. In addition, CBC and blood biochemistry were measured two times per month during the course of experiment by ProCyte Hematology and Catalyst Chemistry Analyzers (IDEXX, Hoofddorp, The Netherlands).

HCC = test: Efficacy against HCC in WHV-infected woodchucks (ultrasound); type: in vivo, woodchuck (Marmota monax); conditions: for median time from first detection of tumor to 2 cm HCC: placebo 55 days; for median time to tumor development: long-term, placebo 295 days, p = 0.35
Source text: Male and female eastern woodchucks (Marmota monax) from two different institutes were used. WHV-infected woodchucks from Cornell University (15) were used for a long-term efficacy study, and six woodchucks in a short-term efficacy study were bred at Roswell Park Comprehensive Cancer Institute Center. Woodchucks were infected at 3–5 days of age with dilute serum from standard infectious pools derived from WHV carriers. Pups were inoculated with diluted, pooled serum from WHV^+ animals. The inoculum was prepared from pooled serum of WHV^+ animals that is diluted aseptically 1:10 in PBS. In a biological safety cabinet, each pup is manually restrained and 100 microliters of inoculum is injected subcutaneously in the intrascapular region. Chronic infection was verified at approximately 3, 6, and 9 months of age by WHV viral titer status. Once the pups are confirmed WHV positive, they were monitored by ultrasound (Philips HDI 5000, Amsterdam, The Netherlands) to confirm the presence of HCC.
In total, 21 animals bearing one or more liver tumors were included in this study for 2 separate experiments. While receiving sorafenib or placebo, animals were monitored with ultrasound every 2 weeks for tumor development greater than 5 mm in diameter. […] Tumor volume was calculated using this formula: volume = shortest axis^2 × longest axis × 0.52.
All WHV carrier woodchucks were randomly divided into three groups such as placebo, low dose (2.5 mg/kg/day), and high dose (5.0 mg/kg/day) groups (n = 5 animals/group) in a long-term efficacy study based on clinical and preclinical studies. Also, a compartmental pharmacokinetic (PK) model was used to select the two lowest doses that can achieve exposure sufficient to inhibit pharmacodynamic targets. Experimental woodchucks were treated with placebo, 2.5 mg/kg, or 5.0 mg/kg sorafenib once daily with a 5 days on and 2 days off schedule. Animals were dosed orally until tumor development. Another experiment was performed with the low (2.5 mg/kg/day) and high (5.0 mg/kg/day) dose groups (n = 3 animals/group) to see the efficacy of short-term (90 days treatment) usage of sorafenib. The primary endpoint of the in vivo study was disease free survival (DFS), and DFS was measured from the date of randomization until the date of any liver tumor detection. The secondary endpoint was tumor size over 2 cm, which was measured from the date of first tumor detection. All experimental protocols were approved by IACUC.

## CNC(=O)c1cc(Oc2ccc(NC(=O)Nc3ccc(Cl)c(C(F)(F)F)c3)cc2)ccn1 [sorafenib, Sorafenib]
Human T cells
  MLR response (T cell proliferation): significant decrease
Woodchuck T cells
  MLR response (T cell proliferation): inhibition of the woodchuck MLR response
[1]; 2.5 and 5.0 mg/kg/day oral, all treatment groups
  general performance change (moving activity, appetite, defecation, urination, weight changes): not detected
[1]; end of experiment, placebo vs 2.5 vs 5.0 mg/kg/day
  CBC and biochemistry analyses among the three groups: no statistical difference
HCC; 2.5 mg/kg
  median time from first detection of tumor to 2 cm HCC: 111 days
HCC; 5 mg/kg
  median time from first detection of tumor to 2 cm HCC: 42 days
HCC; high dose 5.0 mg/kg/day
  median time to tumor development: 351 days
HCC; high dose vs placebo, p = 0.5
  tumor growth delay: failed to show any tumor growth delay effect
HCC; long-term treatment, regardless of doses of sorafenib (15 woodchucks incl. placebo)
  animals that developed HCC: 100%
HCC; low dose 2.5 mg/kg/day compared to placebo and high dose groups
  tumor size when first detected by ultrasound: smaller
HCC; low dose 2.5 mg/kg/day
  median time to tumor development: 384 days
HCC; low dose vs placebo and high dose, p = 0.024
  tumor growth delay: significant tumor growth delay
HCC; short-term usage, 90 days, n = 3/group
  tumor growth delay with low dose compared to high dose: not achieved
HCC; sorafenib treatments compared to placebo
  prevention of HCC and inhibition of WHV replication: did not prevent HCC or inhibit WHV replication

— article PMC6562672, “Dose-Dependent Sorafenib-Induced Immunosuppression Is Associated with Aberrant NFAT Activation and Expression of PD-1 in T Cells” (Cancers, 2019)
